#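 Where inhibition never reached the appropriate level, the endpoint shown equals the highest concentration tested. Otherwise, values were interpolated linearly from a five-concentration, 48-hour dose response in 96-well plates. The concentration for 50% growth inhibition is given as GI50. TGI marks complete inhibition of growth.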
# Key:
# Test in all cases: NCI anticancer screen, dose series, 48 h
# 786-0 renal = test system: 786-0 renal
# A498 renal = test system: A498 renal
# A549 NSCLC = test system: A549 NSCLC
# ACHN renal = test system: ACHN renal
# BT-549 breast = test system: BT-549 breast
# CAKI-1 renal = test system: CAKI-1 renal
# CCRF-CEM leukemia = test system: CCRF-CEM leukemia
# COLO 205 colon = test system: COLO 205 colon
# DU-145 prostate = test system: DU-145 prostate
# EKVX NSCLC = test system: EKVX NSCLC
# HCC-2998 colon = test system: HCC-2998 colon
# HCT-116 colon = test system: HCT-116 colon
# HCT-15 colon = test system: HCT-15 colon
# HL-60(TB) leukemia = test system: HL-60(TB) leukemia
# HOP-62 NSCLC = test system: HOP-62 NSCLC
# HOP-92 NSCLC = test system: HOP-92 NSCLC
# HS 578T breast = test system: HS 578T breast
# HT29 colon = test system: HT29 colon
# IGROV1 ovarian = test system: IGROV1 ovarian
# K-562 leukemia = test system: K-562 leukemia
# KM12 colon = test system: KM12 colon
# LOX IMVI melanoma = test system: LOX IMVI melanoma
# M14 melanoma = test system: M14 melanoma
# MALME-3M melanoma = test system: MALME-3M melanoma
# MCF7 breast = test system: MCF7 breast
# MDA-MB-231 breast = test system: MDA-MB-231 breast
# MDA-MB-435 = test system: MDA-MB-435
# MDA-MB-468 breast = test system: MDA-MB-468 breast
# MOLT-4 leukemia = test system: MOLT-4 leukemia
# NCI-H226 lung = test system: NCI-H226 lung
# NCI-H23 lung = test system: NCI-H23 lung
# NCI-H460 lung = test system: NCI-H460 lung
# NCI-H522 lung = test system: NCI-H522 lung
# NCI/ADR-RES ovarian = test system: NCI/ADR-RES ovarian
# OVCAR-3 ovarian = test system: OVCAR-3 ovarian
# OVCAR-4 ovarian = test system: OVCAR-4 ovarian
# OVCAR-5 ovarian = test system: OVCAR-5 ovarian
# OVCAR-8 ovarian = test system: OVCAR-8 ovarian
# PC-3 prostate = test system: PC-3 prostate
# RPMI-8226 leukemia = test system: RPMI-8226 leukemia
# RXF 393 renal = test system: RXF 393 renal
# SF-268 CNS = test system: SF-268 CNS
# SF-295 CNS = test system: SF-295 CNS
# SF-539 CNS = test system: SF-539 CNS
# SK-MEL-2 melanoma = test system: SK-MEL-2 melanoma
# SK-MEL-28 melanoma = test system: SK-MEL-28 melanoma
# SK-MEL-5 melanoma = test system: SK-MEL-5 melanoma
# SK-OV-3 ovarian = test system: SK-OV-3 ovarian
# SN12C renal = test system: SN12C renal
# SNB-19 CNS = test system: SNB-19 CNS
# SNB-75 CNS = test system: SNB-75 CNS
# SR leukemia = test system: SR leukemia
# SW-620 colon = test system: SW-620 colon
# T-47D breast = test system: T-47D breast
# TK-10 renal = test system: TK-10 renal
# U251 CNS = test system: U251 CNS
# UACC-257 melanoma = test system: UACC-257 melanoma
# UACC-62 melanoma = test system: UACC-62 melanoma
# UO-31 renal = test system: UO-31 renal
smiles,measurement,setting,value
Cc1ccc(/C=C/C(=O)c2ccc(S(=O)(=O)NCCNc3nc(Nc4ccc(F)cc4)nc(N(C)C)n3)cc2)cc1,GI50,786-0 renal,10.5 µM
same,TGI,786-0 renal,23.1 µM
same,GI50,A498 renal,12.6 µM
same,TGI,A498 renal,25.5 µM
same,GI50,A549 NSCLC,10.5 µM
same,TGI,A549 NSCLC,28.6 µM
same,GI50,ACHN renal,6.31 µM
same,TGI,ACHN renal,18.9 µM
same,GI50,BT-549 breast,15.7 µM
same,TGI,BT-549 breast,30.1 µM
same,GI50,CAKI-1 renal,6.98 µM
same,TGI,CAKI-1 renal,22.6 µM
same,GI50,CCRF-CEM leukemia,5.28 µM
same,TGI,CCRF-CEM leukemia,> 100 µM
same,GI50,COLO 205 colon,6.51 µM
same,TGI,COLO 205 colon,20.9 µM
same,GI50,DU-145 prostate,14 µM
same,TGI,DU-145 prostate,32.4 µM
same,GI50,EKVX NSCLC,4.96 µM
same,TGI,EKVX NSCLC,16.9 µM
same,GI50,HCC-2998 colon,4.5 µM
same,TGI,HCC-2998 colon,15.8 µM
same,GI50,HCT-116 colon,1750 nM
same,TGI,HCT-116 colon,3.28 µM
same,GI50,HCT-15 colon,3.92 µM
same,TGI,HCT-15 colon,10.9 µM
same,GI50,HL-60(TB) leukemia,5.58 µM
same,TGI,HL-60(TB) leukemia,32.1 µM
same,GI50,HOP-62 NSCLC,15.3 µM
same,TGI,HOP-62 NSCLC,31.4 µM
same,GI50,HOP-92 NSCLC,7.63 µM
same,TGI,HOP-92 NSCLC,22.2 µM
same,GI50,HS 578T breast,10.7 µM
same,TGI,HS 578T breast,47.4 µM
same,GI50,HT29 colon,2380 nM
same,TGI,HT29 colon,5.25 µM
same,GI50,IGROV1 ovarian,15.1 µM
same,TGI,IGROV1 ovarian,31 µM
same,GI50,K-562 leukemia,3.89 µM
same,TGI,K-562 leukemia,25.3 µM
same,GI50,KM12 colon,5.41 µM
same,TGI,KM12 colon,24.5 µM
same,GI50,LOX IMVI melanoma,4.12 µM
same,TGI,LOX IMVI melanoma,15.3 µM
same,GI50,M14 melanoma,5.91 µM
same,TGI,M14 melanoma,19.7 µM
same,GI50,MALME-3M melanoma,16.4 µM
same,TGI,MALME-3M melanoma,31.6 µM
same,GI50,MCF7 breast,2010 nM
same,TGI,MCF7 breast,5.8 µM
same,GI50,MDA-MB-231 breast,6.56 µM
same,TGI,MDA-MB-231 breast,20 µM
same,GI50,MDA-MB-435,6.03 µM
same,TGI,MDA-MB-435,21.6 µM
same,GI50,MDA-MB-468 breast,4.66 µM
same,TGI,MDA-MB-468 breast,17 µM
same,GI50,MOLT-4 leukemia,3.86 µM
same,TGI,MOLT-4 leukemia,48.6 µM
same,GI50,NCI-H226 lung,10.4 µM
same,TGI,NCI-H226 lung,25.8 µM
same,GI50,NCI-H23 lung,11.3 µM
same,TGI,NCI-H23 lung,23.8 µM
same,GI50,NCI-H460 lung,4.22 µM
same,TGI,NCI-H460 lung,15.8 µM
same,GI50,NCI-H522 lung,5.24 µM
same,TGI,NCI-H522 lung,18.1 µM
same,GI50,NCI/ADR-RES ovarian,8.39 µM
same,TGI,NCI/ADR-RES ovarian,21.1 µM
same,GI50,OVCAR-3 ovarian,11.3 µM
same,TGI,OVCAR-3 ovarian,24.8 µM
same,GI50,OVCAR-4 ovarian,7.79 µM
same,TGI,OVCAR-4 ovarian,33.8 µM
same,GI50,OVCAR-5 ovarian,14.9 µM
same,TGI,OVCAR-5 ovarian,28.2 µM
same,GI50,OVCAR-8 ovarian,13 µM
same,TGI,OVCAR-8 ovarian,27 µM
same,GI50,PC-3 prostate,3.54 µM
same,TGI,PC-3 prostate,18.2 µM
same,GI50,RPMI-8226 leukemia,2730 nM
same,TGI,RPMI-8226 leukemia,8.28 µM
same,GI50,RXF 393 renal,4.98 µM
same,TGI,RXF 393 renal,18.2 µM
same,GI50,SF-268 CNS,8.76 µM
same,TGI,SF-268 CNS,29.2 µM
same,GI50,SF-295 CNS,11.5 µM
same,TGI,SF-295 CNS,23.8 µM
same,GI50,SF-539 CNS,13 µM
same,TGI,SF-539 CNS,25.9 µM
same,GI50,SK-MEL-2 melanoma,11.2 µM
same,TGI,SK-MEL-2 melanoma,24.2 µM
same,GI50,SK-MEL-28 melanoma,11.3 µM
same,TGI,SK-MEL-28 melanoma,23.7 µM
same,GI50,SK-MEL-5 melanoma,8.25 µM
same,TGI,SK-MEL-5 melanoma,20.7 µM
same,GI50,SK-OV-3 ovarian,17 µM
same,TGI,SK-OV-3 ovarian,45.9 µM
same,GI50,SN12C renal,11.2 µM
same,TGI,SN12C renal,23.4 µM
same,GI50,SNB-19 CNS,11 µM
same,TGI,SNB-19 CNS,23.6 µM
same,GI50,SNB-75 CNS,7.59 µM
same,TGI,SNB-75 CNS,45 µM
same,GI50,SR leukemia,2760 nM
same,TGI,SR leukemia,11.2 µM
same,GI50,SW-620 colon,7.53 µM
same,TGI,SW-620 colon,20.9 µM
same,GI50,T-47D breast,3.86 µM
same,TGI,T-47D breast,17.8 µM
same,GI50,TK-10 renal,15.2 µM
same,TGI,TK-10 renal,30.7 µM
same,GI50,U251 CNS,11.6 µM
same,TGI,U251 CNS,26 µM
same,GI50,UACC-257 melanoma,17.4 µM
same,TGI,UACC-257 melanoma,33.1 µM
same,GI50,UACC-62 melanoma,8.4 µM
same,TGI,UACC-62 melanoma,21.1 µM
same,GI50,UO-31 renal,6.77 µM
same,TGI,UO-31 renal,19.8 µM
